Assay results from US8822467B2 (Ligand Pharmaceuticals Inc., priority 2009, dated 2014).

What follows are molecules tested against T1, human CRTH2 (Homo sapiens, UniProt Q9Y5Y4) (assay: [35S]GTPγS binding assay (SPA) on membranes from CHO-K1 cells stably expressing human CRTH2, stimulated with 60 nM DHK-PGD2). Conditions: membranes of CHO-K1 cells expressing human CRTH2; 60 nM DHK-PGD2; Table 1; read-out: CRTH2 hGTPγS IC50.
T1 construct: expressed in transfected cells
T1 sequence (Q9Y5Y4 1-395): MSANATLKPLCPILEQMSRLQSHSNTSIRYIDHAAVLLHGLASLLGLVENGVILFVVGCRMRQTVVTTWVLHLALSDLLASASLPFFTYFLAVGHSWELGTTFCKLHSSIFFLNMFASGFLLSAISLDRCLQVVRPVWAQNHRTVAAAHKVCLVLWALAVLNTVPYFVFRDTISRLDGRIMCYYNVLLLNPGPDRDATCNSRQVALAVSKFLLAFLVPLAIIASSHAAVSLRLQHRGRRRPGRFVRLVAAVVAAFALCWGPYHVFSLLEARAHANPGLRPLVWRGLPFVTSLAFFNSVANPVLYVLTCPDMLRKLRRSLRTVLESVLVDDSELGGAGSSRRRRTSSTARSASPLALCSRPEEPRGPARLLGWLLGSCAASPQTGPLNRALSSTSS
Type: biochemical
Experimental: [^35S]GTPγS Binding Assay
SPA [^35S]G-TPγS binding was performed on membranes from CHO-K1 cells stably expressing human CRTH2. To a white, clear-bottomed 384-well plate, 4 μg membrane protein was incubated in the binding buffer (20 mM HEPES, pH 7.4, 10 mM MgCl2, 300 mM NaCl, 0.2% BSA) with 60 nM DHK-PGD2, 500 pM [^35S]GTPγS, 10 μM GDP, and 100 μg wheat germ agglutinin-coupled SPA beads (GE Healthcare) with and without increasing concentrations of compounds. The final assay volume was 40 μL and contained 1% DMSO. Samples were incubated for 2 h at ambient temperature. Plates were centrifuged 5 min at 1500 rpm. Plates were read after an additional 4 h using the Trilux 1450 Microbeta (PerkinElmer) with a 30 sec/well reading time.

Row | Compound | IC50
1 | CN(Cc1ccc(OCC(=O)O)c(-c2cc(F)cc(F)c2)c1)S(=O)(=O)c1ccc(F)c(Cl)c1 [Example 67, 2-(3,5-difluorophenyl)-4-((3-chloro4-fluoro-N-methylphenylsulfonamido)methyl)phenoxyacetic acid] | 13 nM
2 | CN(Cc1ccc(OCC(=O)O)c(-c2cc(F)cc(C#N)c2)c1)S(=O)(=O)c1cccc(Cl)c1 [Example 45, 2-(3-cyano-5-fluorophenyl)-4-((3-chloro-N-methylphenylsulfonamido)methyl)phenoxyacetic acid] | 2 nM

More lines, now with the values ahead:

Row | IC50 | Compound
3 | 0.6 nM | COc1ccc(S(=O)(=O)N(C)Cc2cc(-c3cc(F)cc(C#N)c3)c(OCC(=O)O)cc2F)cc1F [Example 197, 2-(3-cyano-5-fluorophenyl)-(5-fluoro-4-((3-fluoro-4-methoxy-N-methylphenylsulfonamido)methyl)phenoxy)acetic acid]
4 | 0.7 nM | COc1ccc(S(=O)(=O)NCc2ccc(OCC(=O)O)c(-c3cc(F)cc(C#N)c3)c2)cc1F [Example 196, 2-(3-cyano-5-fluorophenyl)-4-((3-fluoro-4-methoxyphenylsulfonamido)methyl)phenoxyacetic acid]
5 | 169 nM | O=C(O)COc1ccc(CNS(=O)(=O)c2ccc(F)cc2)cc1-c1cccc(C(F)(F)F)c1 [Example 110]

Same assay, conditions: potency class symbols; Table 2; read-out: CRTH2 hGTPγS IC50

Row | Compound | IC50
6 | CNS(=O)(=O)c1cccc(-c2cc(CN(C)S(=O)(=O)c3ccc(F)cc3)ccc2OCC(=O)O)c1 [Example 54, 2-(3-N-methylsulfamoylphenyl)-4-((4-fluoro-N-methylphenylsulfonamido)methyl)phenoxyacetic acid] | < 100 nM
7 | Cc1ccc(-c2cc(CN(C)S(=O)(=O)c3ccc(F)cc3)ccc2OCC(=O)O)cc1S(C)(=O)=O [Example 84, 2-(3-methylsulfonyl-4-methyl-phenyl)-4-((4-fluoro-N-methylphenylsulfonamido)methyl)phenoxyacetic acid] | < 100 nM
8 | COc1ccc(S(=O)(=O)N(C)Cc2ccc(OCC(=O)O)c(-c3cc(F)cc(C#N)c3)c2)cc1F [Example 41, 2-(3-cyano-5-fluorophenyl)-4-((3-fluoro-4-methoxy-N-methylphenylsulfonamido)methyl)phenoxyacetic acid] | < 100 nM
9 | COc1cc(F)cc(-c2cc(CN(C)S(=O)(=O)c3ccc(F)cc3)ccc2OCC(=O)O)c1 [Example 96, 2-(3-methoxy-5-fluorophenyl)-4-((4-fluoro-N-methylphenylsulfonamido)methyl)phenoxyacetic acid] | < 100 nM
10 | CN(Cc1ccc(OCC(=O)O)c(-c2cncc(S(C)(=O)=O)c2)c1)S(=O)(=O)c1ccc(F)cc1 [Example 75, 2-(3-methylsulfonyl-5-pyridinyl)-4-((4-fluoro-N-methylphenylsulfonamido)methyl)phenoxyacetic acid] | < 100 nM
11 | CN(Cc1ccc(OCC(=O)O)c(-c2cccc(C#N)c2)c1)S(=O)(=O)c1ccc(F)cc1 [Example 5, 2-(2-(3-cyanophenyl)-4-((4-fluoro-N-methylphenylsulfonamido)methyl)phenoxy)acetic acid] | < 100 nM
12 | CN(Cc1ccc(OCC(=O)O)c(-c2cc(F)cc(C(F)(F)F)c2)c1)S(=O)(=O)c1ccc(F)cc1 [Example 79, 2-(3-trifluoromethyl-5-fluorophenyl)-4-((4-fluoro-N-methylphenylsulfonamido)methyl)phenoxyacetic acid] | < 100 nM
13 | CN(Cc1ccc(OCC(=O)O)c(-c2cc(F)cc(F)c2)c1)S(=O)(=O)c1ccc(F)c(Cl)c1 [Example 67, 2-(3,5-difluorophenyl)-4-((3-chloro4-fluoro-N-methylphenylsulfonamido)methyl)phenoxyacetic acid] | < 100 nM
14 | CN(Cc1ccc(OCC(=O)O)c(-c2cccc(C(N)=O)c2)c1)S(=O)(=O)c1ccc(F)cc1 [Example 105, 2-(3-aminocarbonylphenyl)-4-((4-fluoro-N-methylphenylsulfonamido)methyl)phenoxyacetic acid] | 100 to 1000 nM
15 | CN(Cc1ccc(OCC(=O)O)c(-c2ccc(F)c(S(C)(=O)=O)c2)c1)S(=O)(=O)c1ccc(F)cc1 [Example 28, 2-((4-fluoro-3-(methylsulfonyl)phenyl)-4-((4-fluoro-N-methylphenylsulfonamido)methyl)phenoxy)acetic acid] | < 100 nM
16 | N#Cc1cccc(-c2cc(CNS(=O)(=O)c3ccc(F)cc3)ccc2OCC(=O)O)c1 [Example 9, 2-(2-(3-cyanophenyl)-4-((4-fluorophenylsulfonamido)methyl)phenoxy)acetic acid] | < 100 nM
17 | CN(Cc1ccc(OCC(=O)O)c(-c2cc(F)cc(C#N)c2)c1)S(=O)(=O)c1cccc(F)c1 [Example 61, 2-(3-cyano-5-fluorophenyl)-4-((3-fluoro-N-methylphenylsulfonamido)methyl)phenoxyacetic acid] | < 100 nM
18 | CS(=O)(=O)c1cccc(-c2cc(CNS(=O)(=O)c3ccc(F)cc3)ccc2OCC(=O)O)c1 [Example 81, 2-(3-methylsulfonylphenyl)-4-((4-fluorophenylsulfonamido)methyl)phenoxyacetic acid] | < 100 nM
19 | CN(Cc1ccc(OCC(=O)O)c(-c2cc(F)cc(F)c2)c1)S(=O)(=O)c1cccc(Cl)c1 [Example 68, 2-(3,5-difluorophenyl)-4-((3-chloro-N-methylphenylsulfonamido)methyl)phenoxyacetic acid] | < 100 nM
20 | CN(Cc1ccc(OCC(=O)O)c(-c2cc(F)cc(C#N)c2)c1)S(=O)(=O)c1cccc(Cl)c1 [Example 45, 2-(3-cyano-5-fluorophenyl)-4-((3-chloro-N-methylphenylsulfonamido)methyl)phenoxyacetic acid] | < 100 nM
21 | CN(Cc1ccc(OCC(=O)O)c(-c2ccc3ccn(C)c3c2)c1)S(=O)(=O)c1ccc(F)cc1 [Example 101, 2-(1-methyl-indol-6-yl)-4-((4-fluoro-N-methylphenylsulfonamido)methyl)phenoxyacetic acid] | < 100 nM

Next, values leading:

Row | IC50 | Compound
22 | 1000 to 10000 nM | CN(Cc1ccc(OCC(=O)O)c(-c2ccccc2)c1)S(=O)(=O)c1ccc(F)cc1 [Example 178, 2-phenyl-4-((4-fluoro-N-methylphenylsulfonamido)methyl)phenoxyacetic acid]
23 | 100 to 1000 nM | CN(Cc1ccc(OCC(=O)O)c(-c2cc(F)cc(Cl)c2)c1)S(=O)(=O)c1ccccc1 [Example 150, 2-(3-chloro-5-fluorophenyl)-4-((-N-methylphenylsulfonamido)methyl)phenoxyacetic acid]
24 | < 100 nM | CN(Cc1ccc(OCC(=O)O)c(-c2ccc(C#N)s2)c1)S(=O)(=O)c1ccc(F)cc1 [Example 188, 2-(2-cyanothiophen-5-yl)-4-((4-fluoro-N-methylphenylsulfonamido)methyl)phenoxyacetic acid]
25 | 100 to 1000 nM | CCOc1cc(F)cc(-c2cc(CN(C)S(=O)(=O)c3ccc(F)cc3)ccc2OCC(=O)O)c1 [Example 112, 2-(3-ethoxy-5-fluorophenyl)-4-((4-fluoro-N-methylphenylsulfonamido)methyl)phenoxyacetic acid]
26 | 1000 to 10000 nM | Cc1noc(C)c1-c1cc(CN(C)S(=O)(=O)c2ccc(F)cc2)ccc1OCC(=O)O [Example 171, 2-(3,5-dimethylisoxazol-4-yl)-4-((4-fluoro-N-methylphenylsulfonamido)methyl)phenoxyacetic acid]
27 | < 100 nM | COc1ccc(S(=O)(=O)N(C)Cc2cc(-c3cc(F)cc(C#N)c3)c(OCC(=O)O)cc2F)cc1F [Example 197, 2-(3-cyano-5-fluorophenyl)-(5-fluoro-4-((3-fluoro-4-methoxy-N-methylphenylsulfonamido)methyl)phenoxy)acetic acid]
28 | 100 to 1000 nM | CN(Cc1ccc(OCC(=O)O)c(-c2cncc(C(F)(F)F)c2)c1)S(=O)(=O)c1ccc(F)cc1 [Example 119, 2-(3-trifluoromethyl-5-pyridinyl)-4-((4-fluoro-N-methylphenylsulfonamido)methyl)phenoxyacetic acid]
29 | 1000 to 10000 nM | CN(Cc1ccc(OCC(=O)O)c(-c2ccc(Cl)cc2)c1)S(=O)(=O)c1ccc(F)cc1 [Example 165, 2-(4-chlorophenyl)-4-((4-fluoro-N-methylphenylsulfonamido)methyl)phenoxyacetic acid]
30 | < 100 nM | COc1ccc(S(=O)(=O)NCc2ccc(OCC(=O)O)c(-c3cc(F)cc(C#N)c3)c2)cc1F [Example 196, 2-(3-cyano-5-fluorophenyl)-4-((3-fluoro-4-methoxyphenylsulfonamido)methyl)phenoxyacetic acid]
31 | 100 to 1000 nM | CN(Cc1ccc(OCC(=O)O)c(-c2cccc(C(F)(F)F)c2)c1)S(=O)(=O)c1cccc2ccccc12 [Example 145, 2-(3-trifluoromethylphenyl)-4-((N-methylnaphthalene-1-sulfonamido)methyl)phenoxyacetic acid]
32 | < 100 nM | CN(Cc1cc(-c2cc(F)cc(C#N)c2)c(OCC(=O)O)cc1F)S(=O)(=O)c1ccc(F)c(Cl)c1 [Example 209, 2-(3-cyano-5-fluoro-phenyl)-4-((3-chloro-4-fluoro-N-methylphenylsulfonamido)methyl)-5-fluorophenoxyacetic acid]
33 | < 100 nM | CN(Cc1ccc(OCC(=O)O)c(-c2cc(F)cc(C#N)c2)c1)S(=O)(=O)c1cccs1 [Example 190, 2-(3-cyano-5-fluorophenyl)-4-((N-methylthiophene-2-sulfonamido)methyl)phenoxyacetic acid]
34 | 100 to 1000 nM | CC(C)c1cccc(-c2cc(CN(C)S(=O)(=O)c3ccc(F)cc3)ccc2OCC(=O)O)c1 [Example 117, 2-(3-isopropylphenyl)-4-((4-fluoro-N-methylphenylsulfonamido)methyl)phenoxyacetic acid]
35 | 1000 to 10000 nM | Cc1noc(C)c1S(=O)(=O)N(C)Cc1ccc(OCC(=O)O)c(-c2cccc(C(F)(F)F)c2)c1 [Example 160, 2-(3-trifluoromethylphenyl)-4-((N,3,5-trimethylisoxazole-4-sulfonamido)methyl)phenoxyacetic acid]
36 | < 100 nM | CN(Cc1cc(-c2cc(F)cc(C#N)c2)c(OCC(=O)O)cc1F)S(=O)(=O)c1ccc(F)cc1 [Example 208, 2-(3-cyano-5-fluoro-phenyl)-4-((4-fluoro-N-methylphenylsulfonamido)methyl)-5-fluorophenoxyacetic acid]
37 | 100 to 1000 nM | O=C(O)COc1ccc(CNS(=O)(=O)c2ccc(F)cc2)cc1-c1cccc(C(F)(F)F)c1 [Example 110]
